Assays:
[1] = target: T1, size exclusion purified monomeric Aβ42 (LMW) (Homo sapiens, UniProt P05067); test: Assay 1: Targeting monomeric Aβ assay, ThT fluorescence; type: biochemical; details: for LMW (effects of compounds compared to control without compounds) - signal intensity: 37° C; for Inhibition of Aβ fibrillization: LMW, ratio and time not stated
T1 construct: size exclusion purified monomeric Aβ42 (LMW)
Description: Assay 1: Targeting Monomeric Aβ Assay (Timeframe 24-48 Hrs) (See FIG. 1):
In this assay, it was started with size exclusion purified monomeric Aβ42 (LMW). This was incubated with a compound of interest (C) at 37° C. The extent of aggregation was then assessed at 24 and 48 hrs by Thioflavin T (ThT) fluorescence. […] However, it is difficult to infer from this assay alone at which point along the amyloid formation pathway the compound acts, i.e., does interfere with monomer to protofibrils transition or block protofibrils to fibril transition.
(§1) Aβ42 LMW and PF were used at a final concentration of […] and incubated alone or with the compounds at a ratio of 1:0.5 or 1:2.

[2] = target: T2, size exclusion purified protofibrillar mixture of Aβ42 (PF) (Homo sapiens, UniProt P05067); test: Assay 2: Targeting protofibrillar Aβ assay, ThT fluorescence; type: biochemical; details: for PF (effects of compounds compared to control without compounds) - signal intensity: 37° C; for Inhibition of Aβ fibrillization: PF, ratio and time not stated
T2 construct: size exclusion purified protofibrillar mixture of Aβ42 (PF)
Description: Assay 2: Targeting Protofibrillar Aβ Assay (Timeframe 24-48 Hrs) (See FIGS. 1 and 2A-2D):
In this assay it was started with a size exclusion purified protofibrillar mixture of Aβ42 (PF). This was incubated with the compound of interest (C) at 37° C. The extent of aggregation was then assessed at 24 and 48 hrs by Thioflavin T (ThT) fluorescence. […] This could occur via at least two mechanisms; i) blocking protofibrils to fibril transition or ii) inducing the dissociation/disaggregation of protofibrils.
as §1

[3] = 24 h, ratio Aβ42:compound 1:0.5, Aβ42 10 pM

T2 sequence (P05067 672-713 limits assumed): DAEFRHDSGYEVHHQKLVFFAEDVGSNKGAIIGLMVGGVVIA
T1 sequence (P05067 672-713 limits assumed): as above

Compound	LMW (effects of compounds compared to control without compounds) - signal intensity ([1]; 24 h, ratio 1:2, Aβ42 10 pM)	LMW (effects of compounds compared to control without compounds) - signal intensity [1, 3]	LMW (effects of compounds compared to control without compounds) - signal intensity ([1]; 48 h, ratio 1:0.5, Aβ42 10 pM)	LMW (effects of compounds compared to control without compounds) - signal intensity ([1]; 48 h, ratio 1:2, Aβ42 10 pM)	Inhibition of Aβ fibrillization [1] [%]	PF (effects of compounds compared to control without compounds) - signal intensity ([2]; 24 h, ratio 1:0.5, Aβ42 10 pM)	PF (effects of compounds compared to control without compounds) - signal intensity ([2]; 24 h, ratio 1:2, Aβ42 10 pM)	PF (effects of compounds compared to control without compounds) - signal intensity ([2]; 48 h, ratio 1:0.5, Aβ42 10 pM)	PF (effects of compounds compared to control without compounds) - signal intensity ([2]; 48 h, ratio 1:2, Aβ42 10 pM)	Inhibition of Aβ fibrillization [2] [%]
O=C(/C=C/c1ccc(O)c(O)c1)O[C@@H](C(=O)O)[C@@H](O)C(=O)O [NP7, Caftaric acid]	Decrease	Decrease	Decrease	Decrease	42	Decrease	Decrease	Decrease	Decrease	35
Chicoric acid [NP5]	Decrease	Decrease	Decrease	Decrease	50	Decrease	Decrease	Decrease	Decrease	41

From patent publication US10912803B2, “Probiotic and polyphenol against neurodegeneration” (NESTEC S.A., priority 2012, dated 2021)
